Test results taken from ChEMBL document CHEMBL1129726, “Tetrazole NK1 receptor antagonists: The identification of an exceptionally potent orally active antiemetic compound” (Bioorg Med Chem Lett, 1996).

Experiments:
Substance-P receptor = Substance-P receptor (Homo sapiens, UniProt P25103); experiment: Inhibition of [3H]-substance P binding to human NK1 receptor expressed in chinese hamster ovary cells; type: cell-based, CHO
Mustela putorius furo = experiment: In vivo antiemetic activity against radiation-induced emesis in ferret.; type: functional

Substance-P receptor, sequence (P25103 whole entry): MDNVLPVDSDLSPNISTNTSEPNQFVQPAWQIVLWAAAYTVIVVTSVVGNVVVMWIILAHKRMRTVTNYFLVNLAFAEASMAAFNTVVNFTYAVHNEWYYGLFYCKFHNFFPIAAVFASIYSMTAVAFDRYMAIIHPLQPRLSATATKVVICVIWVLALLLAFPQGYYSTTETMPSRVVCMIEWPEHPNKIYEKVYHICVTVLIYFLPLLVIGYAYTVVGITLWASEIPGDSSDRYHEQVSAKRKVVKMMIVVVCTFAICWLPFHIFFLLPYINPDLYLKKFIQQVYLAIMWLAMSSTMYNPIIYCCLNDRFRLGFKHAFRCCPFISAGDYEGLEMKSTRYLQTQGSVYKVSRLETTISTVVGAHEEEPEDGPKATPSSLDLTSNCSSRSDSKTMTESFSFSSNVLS

Ki (Substance-P receptor) | Compound | ED90 (Mustela putorius furo)
0.251 nM | COc1ccc(-n2nnnc2NC(C)=O)cc1CN[C@H]1CCCN[C@H]1c1ccccc1 | 
0.0398 nM | COc1ccc(-n2cnnn2)cc1CN[C@H]1CCCN[C@H]1c1ccccc1.Cl.Cl | 0.1 mg/kg
0.0501 nM | CCc1nnnn1-c1ccc(OC)c(CN[C@H]2CCCN[C@H]2c2ccccc2)c1.Cl.Cl | 0.3 mg/kg
2 nM | CCN(CC)c1nnnn1-c1ccc(OC)c(CN[C@H]2CCCN[C@H]2c2ccccc2)c1 | 
1 nM | COc1ccc(-n2nnnc2N)cc1CN[C@H]1CCCN[C@H]1c1ccccc1 | 
0.0501 nM | COc1ccc(-n2nnnc2C)cc1CN[C@H]1CCCN[C@H]1c1ccccc1.Cl.Cl | 0.15 mg/kg
0.0398 nM | COc1ccc(-n2nnnc2SC)cc1CN[C@H]1CCCN[C@H]1c1ccccc1.Cl.Cl | 1 mg/kg
0.0794 nM | COc1ccc(-n2nnnc2C2CC2)cc1CN[C@H]1CCCN[C@H]1c1ccccc1.Cl.Cl | > 1 mg/kg
0.0631 nM | COc1ccc(-n2nnnc2S(C)(=O)=O)cc1CN[C@H]1CCCN[C@H]1c1ccccc1.Cl.Cl | > 1 mg/kg
0.0398 nM | CCCc1nnnn1-c1ccc(OC)c(CN[C@H]2CCCN[C@H]2c2ccccc2)c1.Cl.Cl | > 3 mg/kg
0.398 nM | COc1ccc(-n2nnnc2-c2ccccc2)cc1CN[C@H]1CCCN[C@H]1c1ccccc1.Cl.Cl | > 1 mg/kg
0.0251 nM | COc1ccc(-n2nnnc2C(F)(F)F)cc1CN[C@H]1CCCN[C@H]1c1ccccc1.Cl.Cl [VOFOPITANT DIHYDROCHLORIDE] | 0.03 mg/kg
